Measurements from patent US11000515B2, “Compounds that interact with the Ras superfamily for the treatment of cancers, inflammatory diseases, rasopathies, and fibrotic disease” (Shy Therapeutics LLC, priority 2017, dated 2021).
Like-named read-outs stand apart in the source and are kept apart here.

Key:
KRas G12D mutant protein = KRas G12D mutant protein (Homo sapiens (Human), UniProt P01116, G12D); assay: Ras GTP binding domain inhibition assay (labeled GTP)
Protocol: The following method was developed as specific assay for KRas G12D mutant protein.
(§1) Buffer-I: • 50 mM Tris, pH 7.5 • 150 mM NaCl (optional) • 1 mM MgCl2 • 1 mM DTT. • KRas G12D mutant protein was expressed as a His-tagged protein. Purified His-KRas G12D protein was diluted in buffer-I to a final concentration of 3-10 μg/ml. • 200 μl of the diluted His-KRas G12D protein was added to a nickel coated 96 well plate and incubated overnight at 4° C. • The next day, wells were washed 3× in 200 μl of Buffer-I. • Then 200 μl of Buffer-I were added to each well in the presence of 1% DMSO. • Tested compounds were added to the protein-coated wells at a concentration of 20 μM, and incubated for 3 hours at room temperature. While performing IC50 measurements a serial dilution of all tested concentrations was prepared.
(§2) Then 22 μl of Cy3-GTP or Cy5-GTP was added to each well. The labeled GTP was incubated for 45 min. at room temperature. • Following GTP incubation, wells were washed 3× in Buffer-I, and 200 μl of Buffer-I were added to each well. • Following washes, the amount of bound labeled-GTP was measured with an Eppendorf AF2200 plate reader.

KRas G12C mutant = KRas G12C mutant (Homo sapiens (Human), UniProt P01116, G12C); assay: as above
Protocol: as §1, §2
(§3) By substituting KRas G12D mutant protein with KRas G12C mutant, KRas wild type, KRas Q61H mutant, KRas G12D/Q61H double mutant or KRas G12C/Q61H double mutant under the assay conditions described above, KRas G12C mutant KRas wild type, KRas Q61H mutant, KRas G12D/Q61H double mutant and KRas G12C/Q61H double mutant inhibition, respectively, were each determined.

[1] = target: KRas G12C/Q61H double mutant (Homo sapiens (Human), UniProt P01116, G12C/Q61H); assay: as above
Protocol: as §1, §2, §3

[2] = target: KRas G12D/Q61H double mutant (Homo sapiens (Human), UniProt P01116, G12D/Q61H); assay: as above
Protocol: as §1, §2, §3

KRas Q61H mutant = KRas Q61H mutant (Homo sapiens (Human), UniProt P01116, Q61H); assay: as above
Protocol: as §1, §2, §3

KRas wild type = KRas wild type (Homo sapiens (Human), UniProt P01116); assay: as above
Protocol: as §1, §2, §3

[3] = tested on: TNFα production in RAW 264.7 macrophage cell line; assay: Mouse TNF alpha quantification assay (LPS-stimulated RAW 264.7, ELISA); format: cell-based; conditions: RAW264.7, LPS-stimulated RAW 264.7 macrophage cell line, read-out: TNF-α % Inhibition at 30 μM
[4] = tested on: IL6 production in RAW 264.7 macrophage cell line; assay: Mouse IL6 quantification assay (LPS-stimulated RAW 264.7, ELISA); format: cell-based; conditions: RAW264.7, LPS-stimulated RAW 264.7 macrophage cell line, read-out: IL-6 % Inhibition at 30 μM
[5] = compound at 20 μM, read-out: % Inhibition at 20 μM, KRas G12D Q61H
[6] = 20 μM compound, read-out: % Inhibition at 20 μM, KRas G12D Q61H

Chain of KRas Q61H mutant (P01116-2 other isoform, or with tags, fused parts or gaps Q61H): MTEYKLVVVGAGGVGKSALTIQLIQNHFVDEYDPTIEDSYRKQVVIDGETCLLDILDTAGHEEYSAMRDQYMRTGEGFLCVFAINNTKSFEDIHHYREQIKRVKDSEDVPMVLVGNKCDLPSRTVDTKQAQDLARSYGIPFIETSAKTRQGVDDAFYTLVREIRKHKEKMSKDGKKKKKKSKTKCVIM
Chain of KRas wild type (P01116-2 other isoform, or with tags, fused parts or gaps): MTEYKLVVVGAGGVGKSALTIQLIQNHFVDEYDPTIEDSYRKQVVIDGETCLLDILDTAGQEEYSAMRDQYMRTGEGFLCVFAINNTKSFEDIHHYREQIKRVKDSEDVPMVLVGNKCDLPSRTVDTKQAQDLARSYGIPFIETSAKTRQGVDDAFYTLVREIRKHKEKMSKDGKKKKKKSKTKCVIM
Chain of KRas G12C/Q61H double mutant (P01116-2 other isoform, or with tags, fused parts or gaps G12C/Q61H): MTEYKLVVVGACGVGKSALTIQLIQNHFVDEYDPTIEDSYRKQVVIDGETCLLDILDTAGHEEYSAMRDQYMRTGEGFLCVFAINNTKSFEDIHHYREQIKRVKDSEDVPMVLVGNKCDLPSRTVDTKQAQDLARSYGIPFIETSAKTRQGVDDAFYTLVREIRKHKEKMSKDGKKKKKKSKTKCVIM
Chain of KRas G12C mutant (P01116-2 other isoform, or with tags, fused parts or gaps G12C): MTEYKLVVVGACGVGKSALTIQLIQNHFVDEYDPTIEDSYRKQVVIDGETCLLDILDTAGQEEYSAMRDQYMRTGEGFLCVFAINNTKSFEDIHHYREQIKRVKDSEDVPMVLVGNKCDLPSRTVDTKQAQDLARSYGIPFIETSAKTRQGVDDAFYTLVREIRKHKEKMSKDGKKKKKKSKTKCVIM
Chain of KRas G12D/Q61H double mutant (P01116-2 other isoform, or with tags, fused parts or gaps G12D/Q61H): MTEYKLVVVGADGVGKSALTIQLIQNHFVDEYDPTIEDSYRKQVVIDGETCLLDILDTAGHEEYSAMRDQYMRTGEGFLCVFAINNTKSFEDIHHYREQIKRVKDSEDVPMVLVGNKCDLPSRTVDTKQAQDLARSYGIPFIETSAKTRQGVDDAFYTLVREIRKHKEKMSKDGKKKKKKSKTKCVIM
Chain of KRas G12D mutant protein (P01116-2 other isoform, or with tags, fused parts or gaps G12D): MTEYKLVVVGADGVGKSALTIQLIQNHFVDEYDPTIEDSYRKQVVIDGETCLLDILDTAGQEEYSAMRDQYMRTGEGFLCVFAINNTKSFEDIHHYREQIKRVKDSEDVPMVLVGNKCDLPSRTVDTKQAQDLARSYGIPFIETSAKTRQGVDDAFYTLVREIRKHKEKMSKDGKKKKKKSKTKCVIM

**Q.** What does the source list for `CN(C)COc1ccc(-c2csc3c(O)nc(-c4ccccn4)nc23)cn1`?
**A.** inhibition at 20 µM (KRas G12D mutant protein; compound at 20 μM): 51 to 75%; inhibition at 20 µM (KRas G12C mutant; compound at 20 μM): 51 to 75%; inhibition at 20 µM ([1]; compound at 20 μM): 51 to 75%; inhibition at 20 µM [2, 5]: 51 to 75%; inhibition at 20 µM (KRas Q61H mutant; compound at 20 μM): 51 to 75%; inhibition at 20 µM (KRas wild type; compound at 20 μM): 51 to 75%

**Q.** With `O=C(CCC1N=NN=N1)Nc1nc(-c2ccccn2)nc2sccc12` as the compound, how does the inhibition at 20 µM (KRas G12D mutant protein; compound at 20 μM) read?
**A.** 51 to 75%

**Q.** And the inhibition at 20 µM (KRas G12C mutant; compound at 20 μM)?
**A.** 25 to 50%

**Q.** And the inhibition at 20 µM ([1]; compound at 20 μM)?
**A.** 51 to 75%

**Q.** And the inhibition at 20 µM [2, 5]?
**A.** 51 to 75%

**Q.** What about the inhibition at 20 µM (KRas Q61H mutant; compound at 20 μM) of the same compound?
**A.** 51 to 75%

**Q.** What about the inhibition at 20 µM (KRas wild type; compound at 20 μM) of the same compound?
**A.** 51 to 75%

**Q.** For `COc1ccc(CCNC(=O)c2cc(S(=O)(=O)N3CCCCCC3)ccc2OC)cc1OC`, which inhibition at 20 µM [2, 5] is on record?
**A.** 25 to 50%

**Q.** With `CCOC(=O)c1sc(N(C2CC2)S(=O)(=O)c2cc(F)ccc2F)nc1C` as the compound, how does the inhibition at 20 µM [2, 5] read?
**A.** 25 to 50%

**Q.** `Cc1sc2nc(-c3cnccn3)[nH]c(=O)c2c1-c1ccccc1` was tested. Which inhibition at 20 µM [2, 5] did it give?
**A.** 25 to 50%

**Q.** With `N#Cc1ccc(C2CCCN2c2ccco2)cc1C(F)(F)F` (stereo not drawn) as the compound, how does the inhibition at 20 µM [2, 5] read?
**A.** 1 to 25%

**Q.** `Cc1ccc(OCc2nnc(SCC3CCCOC3)o2)cc1` (stereo not drawn) was tested. Which inhibition at 20 µM [2, 5] did it give?
**A.** 1 to 25%

**Q.** Which inhibition at 20 µM [2, 6] does the source give for `CC(NC(=O)c1csc(-c2ccccc2)n1)c1ccccn1` (stereo not drawn) here?
**A.** 1 to 25%

**Q.** For `O=C(NCC(F)(F)F)c1ccc(CN(Cc2cc(Cl)cc3c2OCOC3)C2CC2)cc1`, which inhibition at 20 µM [2, 6] is on record?
**A.** 25 to 50%

**Q.** With `CCOc1cc(CN(C(=O)CCc2nc(-c3ccsc3)no2)C2CC2)ccc1OC(F)F` as the compound, how does the inhibition at 20 µM [2, 6] read?
**A.** 25 to 50%

**Q.** Which inhibition at 20 µM [2, 6] does the source give for `COCc1ccc(C2CCCN2c2ccc(C#N)c(C(F)(F)F)c2)o1` (stereo not drawn) here?
**A.** 25 to 50%

**Q.** Which inhibition at 20 µM [2, 6] does the source give for `CC(C)c1cnc(CN2CC(C)N(Cc3ncc(C(C)C)o3)c3ccccc32)o1` (stereo not drawn) here?
**A.** 25 to 50%

**Q.** Which inhibition at 20 µM [2, 6] does the source give for `COCCN(Cc1ccccc1)CC(O)OCC(c1ccc(OC)cc1)c1ccc(OC)cc1` (stereo not drawn) here?
**A.** 1 to 25%

**Q.** `Cc1cc(OC(C)COc2ccc(Oc3ccccc3)cc2)ncc1C(F)(F)F` (stereo not drawn) was tested. Which inhibition at 20 µM [2, 6] did it give?
**A.** 51 to 75%

**Q.** `COc1cccc(-c2nc(C(=O)N3CCC(c4ccccc4)CC3)cs2)c1OC` was tested. Which inhibition at 20 µM [2, 6] did it give?
**A.** 25 to 50%

**Q.** Which inhibition at 20 µM [2, 6] does the source give for `Cc1ccccc1N(CC(=O)NCC1CCCCCCC1)S(C)(=O)=O` here?
**A.** 1 to 25%

**Q.** For `OCC1(Cc2ccccc2)CCCN1c1nc(-c2ccccc2)nc2c1CCC2` (stereo not drawn), which inhibition at 20 µM [2, 6] is on record?
**A.** 25 to 50%

**Q.** How did the “% Inhibition at 20 μM, KRas Q61H” value (KRas Q61H mutant; 20 μM compound) turn out when `Oc1nc(-c2ccccn2)nc2c(C3CCCC3)csc12` was run?
**A.** D (D = 76-100% inhibition)

**Q.** How did the inhibition at 20 µM ([1]; 20 μM compound) turn out when `COc1nc(-c2ccccn2)nc2c(C)c(C(=O)N3CCN(c4ccccc4)CC3)sc12` was run?
**A.** 51 to 75%

**Q.** What about the inhibition at 20 µM [2, 6] of the same compound?
**A.** 51 to 75%

**Q.** And the inhibition at 20 µM (KRas Q61H mutant; 20 μM compound)?
**A.** 51 to 75%

**Q.** With `COc1cnc(CNC(=O)c2csc3nc(-c4ccccn4)nc(N)c23)[nH]c1=O` as the compound, how does the inhibition at 20 µM ([1]; 20 μM compound) read?
**A.** 25 to 50%

**Q.** What about the inhibition at 20 µM (KRas Q61H mutant; 20 μM compound) of the same compound?
**A.** 25 to 50%

**Q.** With `OC[C@H]1O[C@@H](c2csc3c2N=C(c2ccccn2)NC3O)[C@H](O)[C@@H]1O` (stereo partly drawn) as the compound, how does the inhibition at 20 µM (KRas G12D mutant protein; 20 μM compound) read?
**A.** 25 to 50%

**Q.** And the inhibition at 20 µM (KRas G12C mutant; 20 μM compound)?
**A.** 51 to 75%

**Q.** And the inhibition at 20 µM ([1]; 20 μM compound)?
**A.** 25 to 50%

**Q.** And the inhibition at 20 µM [2, 6]?
**A.** 25 to 50%

**Q.** What about the inhibition at 20 µM (KRas Q61H mutant; 20 μM compound) of the same compound?
**A.** 51 to 75%

**Q.** What about the inhibition at 20 µM (KRas wild type; 20 μM compound) of the same compound?
**A.** 25 to 50%

**Q.** `Cn1cnc(-c2nc(O)c3c(C4C=CC=CC4)c(-c4ccncc4)sc3n2)c1` (stereo not drawn) was tested. Which inhibition at 20 µM ([1]; 20 μM compound) did it give?
**A.** 1 to 25%

**Q.** What about the inhibition at 20 µM [2, 6] of the same compound?
**A.** 1 to 25%

**Q.** What about the inhibition at 20 µM (KRas Q61H mutant; 20 μM compound) of the same compound?
**A.** 1 to 25%

**Q.** For `Oc1nc(-c2ccccn2)nc(Oc2cccc(C(F)(F)F)c2)c1O`, which “% Inhibition at 20 μM, KRas G12C” value (KRas G12C mutant; 20 μM compound) is on record?
**A.** B (B = 25-50% inhibition)

**Q.** Which inhibition at 20 µM (KRas G12D mutant protein; 20 μM compound) does the source give for `COCCNc1nc(-c2nccn2C)nc2sc(-c3ccccc3)c(-c3ccccc3)c12` here?
**A.** 0%

**Q.** What does the source list for `Cc1sc2c(O)nc(-c3nccn3C)nc2c1-c1ccccc1Cl`?
**A.** inhibition at 20 µM (KRas G12C mutant; 20 μM compound): 1 to 25%; inhibition at 20 µM (KRas wild type; 20 μM compound): 25 to 50%

**Q.** How did the inhibition at 20 µM (KRas G12D mutant protein; 20 μM compound) turn out when `COCCNc1nc(-c2nccn2C)nc2sc(-c3ccccc3)c(-c3cccnc3)c12` was run?
**A.** 25 to 50%

**Q.** What about the inhibition at 20 µM (KRas G12C mutant; 20 μM compound) of the same compound?
**A.** 25 to 50%

**Q.** What about the inhibition at 20 µM (KRas wild type; 20 μM compound) of the same compound?
**A.** 51 to 75%

**Q.** Which inhibition at 30 µM [3] does the source give for `COc1ccccc1OCC(=O)Nc1nnc(-c2ccccn2)[nH]1` [drawing 2004] here?
**A.** 0%

**Q.** And the inhibition at 30 µM [4]?
**A.** 26 to 50%

**Q.** Which results are given for `CCC(C)c1csc2c(O)nc(-c3ccccn3)nc12` (stereo not drawn) [drawing 2332]?
**A.** inhibition at 30 µM [3]: 1 to 25%; inhibition at 30 µM [4]: 26 to 50%

**Q.** With `COc1ccccc1OCC(=O)Nc1nnc(-c2ccccn2)[nH]1` [drawing 2552] as the compound, how does the inhibition at 20 µM ([2]; 20 μM, read-out: KRas G12D Q61H % Inh.) read?
**A.** 51 to 75%

**Q.** `CCC(C)c1csc2c(O)nc(-c3ccccn3)nc12` (stereo not drawn) [drawing 3492] was tested. Which inhibition at 20 µM (KRas G12D mutant protein; 20 μM compound) did it give?
**A.** 25 to 50%

**Q.** What about the inhibition at 20 µM (KRas G12C mutant; 20 μM compound) of the same compound?
**A.** 25 to 50%

**Q.** And the inhibition at 20 µM ([1]; 20 μM compound)?
**A.** 51 to 75%

**Q.** What about the inhibition at 20 µM [2, 6] of the same compound?
**A.** 51 to 75%

**Q.** What about the inhibition at 20 µM (KRas Q61H mutant; 20 μM compound) of the same compound?
**A.** 51 to 75%

**Q.** And the inhibition at 20 µM (KRas wild type; 20 μM compound)?
**A.** 25 to 50%
